Test results published in PMC9505425, “Targeting of the Mitochondrial TET1 Protein by Pyrrolo[3,2-b]pyrrole Chelators” (International Journal of Molecular Sciences, 2022).
Several values for one entry are separate records, joined by “and”; a condition that tells them apart may be missing. Equal values may be shown once.

How the values were obtained:
BT-20 cells = test: MTT cytotoxicity assay, BT-20; assay type: cell-based, human
Protocol: (§1) The effects of the tested compounds 1–6 on HF-P4, U-118 MG, H1299, BT-20, and Caov-3 cell lines were evaluated by the MTT assay during 48 h treatment (Table 2 and Tables S2–S31). In all tested compounds, we recognized a difference in cytotoxicity between healthy cells (HF-P4) and cancer cell lines (BT-20, Caov-3, and H-1299). […] In the case of ovarian cancer, the authors discovered oncogenic and poor prognosis roles of TET1 in epithelial ovarian carcinoma (EOC). TET1 is believed to demethylate the epigenome and activate numerous oncogenic pathways in EOC. The aforementioned study presents a new mechanism where TET1 contributes to tumor development through collaboration with CK2α [21]. The overexpression of the TET1 protein was also found in triple negative breast cancer and was associated with an activation of PI3K/mTOR pathway and decreased overall survival.
The human mammary gland/breast cell line (BT-20), purchased from ATCC (BT-20 (ATCC® HTB-19™), Manassas, VA, USA), was used for the cytotoxicity assay (MTT), and BT-20 cells were cultivated under standard conditions in Eagle’s minimum essential medium (ATCC, Manassas, VA, USA) supplemented with 10% FBS and streptomycin (100 μg/mL) at 37 °C at a 5% CO2 atmosphere.
(§2) For the cytotoxicity assay, we used the following cell lines: human glioblastoma cell line U118-MG, human mammary gland/breast cell line BT-20, human ovary adenocarcinoma cell line Caov-3, and non-small-cell lung carcinoma H-1299. As previously mentioned, these cell lines contain a high level of the TET1 protein, which corresponds to a lower overall survival. In addition to these cell cultures, we used the human dermal fibroblast cell line HF-P4 as a healthy control. Determination of cytotoxicity was performed using the MTT [3-(4,5-dimethylthiazol-2-yl)-2,5-diphenyltetrazolium bromide] colorimetric assay. Viable cells from each cell line were cultured in 96-well plates (VWR, Stříbrná Skalice, Czech Republic) at a density of 1.0 × 10^5 cells per well and allowed to grow for 24 h in 200 μL of recommended medium. After a 1-day incubation, the medium was replaced with solutions of compounds 1–6 at concentration ranges of 0.1–20 μM. Each concentration was measured four times within one test, and the entire test was repeated three times. Tested compounds 1–6 were dissolved in DMSO and then diluted with corresponding medium to a final volume of 200 μL (maximum 1% DMSO). After 48 h exposure, cells were treated with 175 μL of MTT solution (P-LAB, Prague, Czech Republic) for 2 h. In the next step, MTT solution was removed, and 125 μL of DMSO (Penta, Prague, Czech Republic) was added to solubilize dark crystals of formazan formed in intact cells, and absorbance was measured at 570 nm by the enzyme-linked immunoabsorbent assay reader Infinite® 200 PRO (Tecan, Männedorf, Switzerland). The final DMSO concentration was smaller than 1% (v/v). The absorbance of untreated cells was considered 100%, and IC50 values were calculated by the GraphPad Prism 8 software. As a parameter for cytotoxicity, we used a concentration that inhibits 50% of cell growth (IC50).

Caov-3 cells = test: MTT cytotoxicity assay, Caov-3; assay type: cell-based, human
Protocol: as §1
The human ovary adenocarcinoma cell line (Caov-3), purchased from ATCC (Caov-3 (ATCC® HTB-75™), Manassas, VA, USA), was used for the cytotoxicity assay (MTT). Caov-3 cells were cultivated under standard conditions in Dulbecco’s modified Eagle’s medium (ATCC, Manassas, VA, USA) supplemented with 10% FBS and streptomycin (100 μg/mL) at 37 °C at a 5% CO2 atmosphere.
as §2

[1] = MTT cytotoxicity assay, HF-P4; assay type: cell-based, human; conditions: human, HF-P4 normal human dermal fibroblasts, repeats, read-out: Cell viability %
Protocol: as §1
(§3) A human dermal fibroblast cell line was used for intracellular localization and cytotoxicity assay (MTT). Human fibroblast cells HF-P4 (human fibroblasts—patient 4) are normal dermal fibroblasts, which were obtained from the residual skin of a healthy patient who underwent plastic surgery (with informed consent of the patient). HF-P4 cell lines were obtained from the Department of Plastic Surgery, Third Faculty of Medicine, Charles University and University Hospital Královské Vinohrady, Prague, Czech Republic, as described by Szabo et al., 2011, and Dvořánková et al., 2019 [88, 89], and have been processed in accordance with the relevant local ethics committee and the Declaration of Helsinki protection of patients’ rights and benefits with written and signed informed consent of each patient. Cells were cultivated under standard conditions in Dulbecco’s modified Eagle’s medium (ATCC, Manassas, VA, USA), supplemented with 10% FBS and streptomycin (100 μg/mL) at 37 °C at a 5% CO2 atmosphere.
as §2

HF-P4 cells = test: MTT cytotoxicity assay, HF-P4; assay type: cell-based, human; conditions: 48 h; for Cell viability %: repeats
Protocol: as §1, §3, §2

SMILES: Cc1ccc(-n2c(-c3ccc(C(=O)NN)cc3)cc3c2cc(-c2ccc(C(=O)NN)cc2)n3-c2ccc(C)cc2)cc1 [Compound 1]
- melting point: 312 to 313 °C
- Cell viability % (BT-20 cells; BT-20, 100 nM, 48 h, repeats, 0.1 µM): 100.0252% and 99.53%
- Cell viability % (BT-20 cells; BT-20, 500 nM, 48 h, repeats, 0.5 µM): 106.1555% and 91.85%
- Cell viability % (BT-20 cells; BT-20, 750 nM, 48 h, repeats, 0.75 µM): 98.6% and 95.52%
- Cell viability % (BT-20 cells; BT-20, 1 uM, 48 h, repeats, 1 µM): 98.92% and 100.049%
- Cell viability % (BT-20 cells; BT-20, 2.5 uM, 48 h, repeats, 2.5 µM): 55.65% and 54.6523%
- Cell viability % (BT-20 cells; BT-20, 5 uM, 48 h, repeats, 5 µM): 56.31% and 56.39%
- Cell viability % (BT-20 cells; BT-20, 7.5 uM, 48 h, repeats, 7.5 µM): 50.1262% and 42.238%
- Cell viability % (BT-20 cells; BT-20, 10 uM, 48 h, repeats, 10 µM): 44.0939% and 37.78%
- Cell viability % (BT-20 cells; BT-20, 15 uM, 48 h, repeats, 15 µM): 32.99% and 30.02%
- Cell viability % (BT-20 cells; BT-20, 20 uM, 48 h, repeats, 20 µM): 18.85% and 15.23%
- viability at 0.1 µM (BT-20 cells; Homo sapiens, BT-20, 48 h, BT-20, 100 nM, repeats, read-out: Cell viability %): 102%
- viability at 0.5 µM (BT-20 cells; Homo sapiens, BT-20, 48 h, BT-20, 500 nM, repeats, read-out: Cell viability %): 87.8%
- viability at 0.75 µM (BT-20 cells; Homo sapiens, BT-20, 48 h, BT-20, 750 nM, repeats, read-out: Cell viability %): 91.2%
- viability at 1 µM (BT-20 cells; Homo sapiens, BT-20, 48 h, BT-20, 1 uM, repeats, read-out: Cell viability %): 103%
- viability at 2.5 µM (BT-20 cells; Homo sapiens, BT-20, 48 h, BT-20, 2.5 uM, repeats, read-out: Cell viability %): 69.2%
- viability at 5 µM (BT-20 cells; Homo sapiens, BT-20, 48 h, BT-20, 5 uM, repeats, read-out: Cell viability %): 56.8%
- viability at 7.5 µM (BT-20 cells; Homo sapiens, BT-20, 48 h, BT-20, 7.5 uM, repeats, read-out: Cell viability %): 41.2%
- viability at 10 µM (BT-20 cells; Homo sapiens, BT-20, 48 h, BT-20, 10 uM, repeats, read-out: Cell viability %): 41.5%
- viability at 15 µM (BT-20 cells; Homo sapiens, BT-20, 48 h, BT-20, 15 uM, repeats, read-out: Cell viability %): 33.5%
- viability at 20 µM (BT-20 cells; Homo sapiens, BT-20, 48 h, BT-20, 20 uM, repeats, read-out: Cell viability %): 19.8%
- IC50 (BT-20 cells; Homo sapiens, BT-20, MTT, 48 h): 5.94 µM
- Cell viability % (Caov-3 cells; Caov-3, 100 nM, 48 h, repeats, 0.1 µM): 80.61% and 94.8%
- Cell viability % (Caov-3 cells; Caov-3, 500 nM, 48 h, repeats, 0.5 µM): 91.36% and 100.9421% and 76.35%
- Cell viability % (Caov-3 cells; Caov-3, 750 nM, 48 h, repeats, 0.75 µM): 95.41% and 77.67%
- Cell viability % (Caov-3 cells; Caov-3, 1 uM, 48 h, repeats, 1 µM): 71.07% and 89.66%
- Cell viability % (Caov-3 cells; Caov-3, 2.5 uM, 48 h, repeats, 2.5 µM): 71.79% and 55.75%
- Cell viability % (Caov-3 cells; Caov-3, 5 uM, 48 h, repeats, 5 µM): 48.77% and 58.08%
- Cell viability % (Caov-3 cells; Caov-3, 7.5 uM, 48 h, repeats, 7.5 µM): 51.68% and 65.52%
- Cell viability % (Caov-3 cells; Caov-3, 10 uM, 48 h, repeats, 10 µM): 53.56% and 43.67%
- Cell viability % (Caov-3 cells; Caov-3, 15 uM, 48 h, repeats, 15 µM): 35.1% and 41.9%
- Cell viability % (Caov-3 cells; Caov-3, 20 uM, 48 h, repeats, 20 µM): 35.73% and 39.69%
- viability at 0.1 µM (Caov-3 cells; Homo sapiens, Caov-3, 48 h, Caov-3, 100 nM, repeats, read-out: Cell viability %): 97.9%
- viability at 0.75 µM (Caov-3 cells; Homo sapiens, Caov-3, 48 h, Caov-3, 750 nM, repeats, read-out: Cell viability %): 78.5%
- viability at 1 µM (Caov-3 cells; Homo sapiens, Caov-3, 48 h, Caov-3, 1 uM, repeats, read-out: Cell viability %): 81.2%
- viability at 2.5 µM (Caov-3 cells; Homo sapiens, Caov-3, 48 h, Caov-3, 2.5 uM, repeats, read-out: Cell viability %): 55.9%
- viability at 5 µM (Caov-3 cells; Homo sapiens, Caov-3, 48 h, Caov-3, 5 uM, repeats, read-out: Cell viability %): 50.9%
- viability at 7.5 µM (Caov-3 cells; Homo sapiens, Caov-3, 48 h, Caov-3, 7.5 uM, repeats, read-out: Cell viability %): 56.4%
- viability at 10 µM (Caov-3 cells; Homo sapiens, Caov-3, 48 h, Caov-3, 10 uM, repeats, read-out: Cell viability %): 45.1%
- viability at 15 µM (Caov-3 cells; Homo sapiens, Caov-3, 48 h, Caov-3, 15 uM, repeats, read-out: Cell viability %): 45.9%
- viability at 20 µM (Caov-3 cells; Homo sapiens, Caov-3, 48 h, Caov-3, 20 uM, repeats, read-out: Cell viability %): 28.5%
- IC50 (Caov-3 cells; Homo sapiens, Caov-3, MTT, 48 h): 6.48 µM
- viability at 48 h, 0.1 µM ([1]; HF-P4, 100 nM): 101%
- viability at 48 h, 0.5 µM ([1]; HF-P4, 500 nM): 106%
- viability at 48 h, 0.75 µM ([1]; HF-P4, 750 nM): 94%
- viability at 48 h, 1 µM ([1]; HF-P4, 1 uM): 105%
- viability at 48 h, 2.5 µM ([1]; HF-P4, 2.5 uM): 94.3%
- viability at 48 h, 5 µM ([1]; HF-P4, 5 uM): 80.7%
- viability at 48 h, 7.5 µM ([1]; HF-P4, 7.5 uM): 77.3%
- viability at 48 h, 10 µM ([1]; HF-P4, 10 uM): 70.5%
- viability at 48 h, 15 µM ([1]; HF-P4, 15 uM): 67.1%
- viability at 48 h, 20 µM ([1]; HF-P4, 20 uM): 64%
- Cell viability % (HF-P4 cells; HF-P4, 100 nM, 0.1 µM): 110.5137% and 108.5444%
- Cell viability % (HF-P4 cells; HF-P4, 500 nM, 0.5 µM): 109.6499% and 91.3%
- Cell viability % (HF-P4 cells; HF-P4, 750 nM, 0.75 µM): 108.0378% and 98.14%
- Cell viability % (HF-P4 cells; HF-P4, 1 uM, 1 µM): 114.0028% and 114.925%
- Cell viability % (HF-P4 cells; HF-P4, 2.5 uM, 2.5 µM): 106.4486% and 88.2524%
- Cell viability % (HF-P4 cells; HF-P4, 5 uM, 5 µM): 90.58% and 81.47%
- Cell viability % (HF-P4 cells; HF-P4, 7.5 uM, 7.5 µM): 87.03% and 78.05%
- Cell viability % (HF-P4 cells; HF-P4, 10 uM, 10 µM): 75.94% and 65.94%
- Cell viability % (HF-P4 cells; HF-P4, 15 uM, 15 µM): 59.86% and 63.15%
- Cell viability % (HF-P4 cells; HF-P4, 20 uM, 20 µM): 64.65% and 61.04%
- IC50 (HF-P4 cells; Homo sapiens, MTT): > 20 µM
